Assay [1] has as its target T1, human PPARγ ligand binding domain (LBD) (Homo sapiens, UniProt P37231).
T1 construct: purchased Invitrogen #4894
T1 sequence (P37231 238-503 limits assumed): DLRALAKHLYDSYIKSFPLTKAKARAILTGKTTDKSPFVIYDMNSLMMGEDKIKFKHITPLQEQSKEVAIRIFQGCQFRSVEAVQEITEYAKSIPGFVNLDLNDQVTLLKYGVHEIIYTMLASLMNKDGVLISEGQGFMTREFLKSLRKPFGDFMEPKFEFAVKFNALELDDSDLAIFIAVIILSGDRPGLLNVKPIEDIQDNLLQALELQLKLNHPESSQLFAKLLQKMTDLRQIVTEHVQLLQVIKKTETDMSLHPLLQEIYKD
Description: TR-FRET PPARγ competitive binding assay (Invitrogen LanthaScreen). As for the experimental part: Whereas activation of the PPARγ receptor is generally believed to be a selection criteria to select for molecules that may have anti-diabetic and insulin sensitizing pharmacology, this invention finds that activation of this receptor should be a negative selection criterion. Molecules will be chosen from this chemical space because they have reduced, not just selective, activation of PPARγ. […] The assays are conducted by first evaluation of the direct interactions of the molecules with the ligand binding domain of PPARγ. This can be performed with a commercial interaction kit that measures the direct interaction by florescence using rosiglitazone as a positive control.
PPARγ binding is measured by a TR-FRET competitive binding assay using Invitrogen LanthaScreen™ TR-FRET PPARγ Competitive Binding Assay (Invitrogen #4894). This assay uses a terbium-labeled anti-GST antibody to label the GST tagged human PPARγ ligand binding domain (LBD). A fluorescent small molecule pan-PPAR ligand tracer binds to the LBD causing energy transfer from the antibody to the ligand resulting in a high TR-FRET ratio. Competition binding by PPARγ ligands displace the tracer from the LBD causing a lower FRET signal between the antibody and tracer. The TR-FRET ratio is determined by reading the fluorescence emission at 490 and 520 nm using a Synergy2 plate reader (BioTek). The ability of several exemplary compounds of the present invention to bind to PPARγ was also measured using a commercial binding assay (Invitrogen Corporation, Carlsbad, Calif.) that measures the test compounds ability to bind with PPAR-LBD/Fluormone PPAR Green complex. These assays were performed on three occasions with each assay using four separate wells (quadruplicate) at each concentration of tested compound. The data are mean and SEM of the values obtained from the three experiments. Rosiglitazone was used as the positive control in each experiment. Compounds were added at the concentrations shown, which ranged from 0.1-100 micromolar.

A short description of assay [2]: Glucose, triglycerides and insulin, T/C normalized to vehicle. The class given is in vivo. The following applies: normalized to vehicle activity.
The next assay relates to 5XFAD mice. As to the kind of experiment: Plaque pathology in hippocampus of 5XFAD mice. In kind it is in vivo. The settings on record: chow delivering 390 mg/kg for 4 weeks. The protocol:
5XFAD mice harbor 5 familial mutations (3 in the amyloid precursor protein; 2 in presenilin 1) and develop robust plaque pathology as early as 6 weeks. These mice were treated beginning at 2 months of age for a period of 4 weeks with control chow or chow containing Compound A to deliver 390 mg/kg for 4 weeks.
Referring to FIG. 7, […] stained plaques were counted in the hippocampus of the 5XFAD mice. […] Note that the plaques having less than 100 micron size were excluded from the graph, and those amounted to about 70% of all the plaques in both Control and Compound A treated groups.

A further assay has as its system PGC-1α. Description: Expression of PGC-1α mRNA in precursor BAT cells with norepinephrine. The class given is cell-based. The following applies: 3 μM compound for seven days, then 1 μM norepinephrine for 2 hours, quantitative PCR. The protocol: Another example of the ability of augmented signaling between cyclic nucleotides and compounds of Formula I is shown by the effect on expression of PGC-1α, a known regulator of mitochondrial biogenesis. Increased numbers of mitochondria are predictive of utility for the reduction of body weight.
Precursor BAT cells were isolated as described above and treated with or without 3 μM compounds: 1.] Compound A: 5-(4-(2-(5-ethylpyridin-2-yl)-2-oxoethoxy)benzyl)-1,3-thiazolidine-2,4-dione; 2.] Compound B: 5-(4-(2R)-2-(5-ethylpyridin-2-yl)-2-hydroxyethoxyy)benzyl)-1,3-thiazolidine-2,4-dione; or 3.] Compound C: 5-(4-(2-(3-methoxyphenyl)-2-oxoethoxy)benzyl)-1,3-thiazolidine-2,4-dione for seven days followed by treatment with 1 μM norepinephrine for 2 hours. Total RNA was isolated from the cells and the RNA message (mRNA) for PGC-1α was measured by quantitative polymerase chain reactions.

As a reminder, the IC50 is the concentration that inhibits the measured activity by half. Consider `CCOC(Cc1ccc(OCC(=O)c2ccc(CC)cn2)cc1)C(=O)O` (stereo not drawn) [Compound 1], for which, in assay [1], the IC50 stood at 17.8 µM. Still for that read-out and setting: under `COc1cccc(C(=O)COc2ccc(CC(=O)C(=O)O)cc2)c1` [Compound 10] stands 111 µM. For `CCO/C(=C\c1cccc(OCC(=O)c2cccc(OC)c2)c1)C(=O)O` [Compound 13], the IC50 in assay [1] is 21.8 µM. For the same molecule, in assay [2] (no dose given), the “Insulin (T/C)” value is 0.81 T/C and the “Triglycerides (mean T/C)” value is listed as 0.86 T/C.

With `CCO/C(=C\c1ccc(OCC(=O)c2ccc(CC)cn2)cc1)C(=O)O` [Compound 14], the IC50 in assay [1] is 96.1 µM. Turning to `COc1cccc(C(=O)COc2cccc(O[C@H](C)C(=O)O)c2)c1` [Compound 15], in assay [1], the IC50 worked out at 100 µM. Regarding `CCO/C(=C\c1ccc(OC/C(=N/OC)c2ccc(CC)cn2)cc1)C(=O)O` [Compound 17], in assay [1], the IC50 came out at 21 µM. As for `CCOC(Cc1ccc(OC/C(=N/OC)c2ccc(CC)cn2)cc1)C(=O)O` (stereo not drawn) [Compound 18], the IC50 in assay [1] came to 62.2 µM. As to `CCOC(Oc1ccc(OC[C@@H](O)c2ccc(CC)cn2)cc1)C(=O)O` (stereo partly drawn) [Compound 35], in assay [1], the IC50 was 0.3 µM. Moreover, the “Insulin (T/C)” value in assay [2] (@7.5) is 0.20@7.5 T/C; in assay [2] (@15), 0.44@15 T/C; in assay [2] (@30) it was 0.11@30 T/C. Further, the entries for the “Triglycerides (mean T/C)” value in assay [2] (@7.5), in assay [2] (@15) and in assay [2] (@30) were 0.32@7.5 T/C, 0.24@15 T/C and 0.17@30 T/C, respectively. In the case of `CCOC(Oc1ccc(OC[C@H](O)c2ccc(CC)cn2)cc1)C(=O)O` (stereo partly drawn) [Compound 36], the IC50 in assay [1] turned out to be 17.6 µM. Moreover, the “Triglycerides (mean T/C)” value in assay [2] (@0.5) is recorded as 0.50@0.5 T/C; in assay [2] (@7.5), 0.41@7.5 T/C; in assay [2] (@30) it was 0.38@30 T/C. The “Insulin (T/C)” value is 0.26@7.5 T/C in assay [2] (@7.5), 0.33@15 T/C in assay [2] (@15) and 0.46@30 T/C in assay [2] (@30). On to `CCOC(Cc1ccc(OCC(=O)c2cccc(OC)c2)cc1)C(=O)O` (stereo not drawn) [Compound 47], for which the IC50 in assay [1] is 6.07 µM. Also, in assay [2] (no dose given), the “Insulin (T/C)” value worked out at 0.26 T/C and the “Triglycerides (mean T/C)” value was 0.33 T/C.

As to `CCOC(Cc1ccc(OCC(=NO)c2cccc(OC)c2)cc1)C(=O)O` (stereo not drawn) [Compound 48], the IC50 in assay [1] was 14.7 µM. As for `CCOC(Cc1ccc(OC[C@@H](F)c2cccc(OC)c2)cc1)C(=O)O` (stereo partly drawn) [Compound 50], the IC50 in assay [1] is 157 µM. As to `COc1cccc(C(=O)COc2ccc(C[C@@H](O)C(=O)O)cc2)c1` [Compound 53], in assay [1], the IC50 was over 263 µM.

For the molecule `CCO[C@@H](Cc1ccc(OC[C@@H](NC(=O)OC(C)(C)C)c2ccccc2)cc1)C(=O)O` [Compound 55], the IC50 in assay [1] worked out at 18.9 µM. Still for that read-out and setting: under `CCO[C@@H](Cc1ccc(OC[C@@H](NC(C)=O)c2ccccc2)cc1)C(=O)O` [Compound 56] stands 33.7 µM. Same read-out and setting: then `CCO[C@@H](Cc1ccc(OC[C@@H](N)c2ccccc2)cc1)C(=O)O` [Compound 57], with 39.7 µM. Take `CCO[C@@H](Cc1ccc(OC[C@@H](NC=O)c2ccccc2)cc1)C(=O)O` [Compound 58]: the IC50 in assay [1] worked out at 12.3 µM. For `CCO[C@@H](Cc1ccc(OC[C@H](NC=O)c2ccccc2)cc1)C(=O)O` [Compound 59], in assay [1], the IC50 is over 250 µM. Consider `CCO[C@@H](Cc1ccc(OC[C@H](NS(C)(=O)=O)c2ccccc2)cc1)C(=O)O` [Compound 60], for which the IC50 in assay [1] was determined as 80.3 µM. On to `CCOC(=O)[C@H](Cc1ccc(OC[C@@H](NC(=O)OC(C)(C)C)c2ccccc2)cc1)OCC` [Compound 61], for which the concentration for half-maximal inhibition (IC50) in assay [1] came out at 14.1 µM. For `CCOC(=O)[C@H](Cc1ccc(OC[C@@H](N)c2ccccc2)cc1)OCC` [Compound 62], the IC50 in assay [1] stood at 84.8 µM. With `CCc1ccc(C(=O)COc2ccc(CC3SC(=O)NC3=O)cc2)nc1` (stereo not drawn) [Compound A, 5-(4-(2-(5-ethylpyridin-2-yl)-2-oxoethoxy)benzyl)-1,3-thiazolidine-2,4-dione], the “plaques having less than 100 micron size, share of all the plaques” value with 5XFAD mice (same in the control group) was “about 70%”. Further, in the assay on 5XFAD mice (versus control chow), the “size and number of thioflavin stained plaques in the hippocampus” value is reported as “less than the control group”. In the assay on PGC-1α, the “PGC-1α mRNA (message)” value is listed as “an increase in PGC-1α message was observed”. As to `CCc1ccc([C@@H](O)COc2ccc(CC3SC(=O)NC3=O)cc2)nc1` (stereo partly drawn) [Compound B], the “PGC-1α mRNA (message)” value in the assay on PGC-1α is “an increase in PGC-1α message was observed”. Consider `COc1cccc(C(=O)COc2ccc(CC3SC(=O)NC3=O)cc2)c1` (stereo not drawn) [Compound C, 5-(4-(2-(3-methoxyphenyl)-2-oxoethoxy)benzyl)-1,3-thiazolidine-2,4-dione], for which, in the assay on PGC-1α, the “PGC-1α mRNA (message)” value is given as “an increase in PGC-1α message was observed”.

For the origin of these results see patent US20160051529A1, “PPAR-SPARING THIAZOLIDINEDIONES AND COMBINATIONS FOR THE TREATMENT OF NEURODEGENERATIVE AND OTHER METABOLIC DISEASES” (METABOLIC SOLUTIONS DEVELOPMENT COMPANY LLC, priority 2012, published 2016).
